Laboratory results published in patent US20240391940A1, “FUSED RING-CONTAINING COMPOUND, APPLICATION THEREOF, AND COMPOSITION CONTAINING SAME” (GenEros Biopharma Ltd., priority 2020, published 2024).
“And” between values parts separate entries of the source, which are not always exact repeats. Equal values may be shown once. “Also recorded” adds a separate entry of the source.

Assays:
[1] = test system: collagen-induced arthritis (CIA) mouse model; assay: Mouse CIA model, repeated for dose exploration (10, 30, 50 mg/kg)
Text: Testing was repeated for dose exploration
The above method was used.

female BALB/c mice = assay: Acute toxicity, single administration in mice; assay type: in vivo
Method: • Part I: Single administration. A total of 6 mice were used. They were randomly divided into 2 groups: the vehicle control and GEN1-284s (1000 mg/kg), dosed once by oral gavage and observed for 6 days, and changes in body weight and activities were recorded. • Part II: Multiple administrations. This experiment used a total of 6 mice. They were divided into two groups of 3: a GEN1-284s-1000 mg/kg group and a GEN1-284s-300 mg/kg group, and were intragastrically given GEN1-284s for 14 consecutive days at 200 μL each. The state and survival of the mice were observed every day, and their body weights were recorded. Two mice died 2 h after GEN1-284s-1000 mg/kg administration. The dose was changed to 600 mg/kg, and the experiment was continued.
This experiment used a total of 6 mice. They were randomly divided into two groups of 3: a vehicle group and a GEN1-284s-1000 mg/kg group, and were intragastrically dosed once on day 0 at 200 μL each. The state and survival of the mice were observed every day, and their body weights were recorded.
Changes in body weight and survival of the mice were observed during 6 days after the single administration, and changes in body weight and the survival of the mice were observed during 14 consecutive days of high-dose GEN1-284s administration.

[2] = test system: Apoe KO mouse atherosclerosis model; assay: Atherosclerosis model: plaques in the cardiac (left ventricular) outflow tract; assay type: in vivo, C57BL/6 Apoe KO mice; details: Apoe KO mice, high-fat diet; GEN1-284s 60 mpk QD oral
Method: Method: Apoe KO mice were tested for basal blood lipid levels and divided into a normal control group and a high-fat group. After 8 weeks of housing, the mice from the high-fat group were divided into 4 groups of about 8: a normal diet group (Chow), a high-fat diet model group (HFD), an Atorvastatin positive group (HFD+atorvastatin 5 mpk, QD), and a GEN1-284s group (284-60 mpk, QD). Oral administration was performed for 8 consecutive weeks, and the effect of the compound on the following indicators in Apoe KO mice was observed: 4 blood lipid tests (TC, TG, HDL-C and LDL-C), aortic plaque En-face staining, and pathological oil red staining of the cardiac outflow tract.
Mice from the groups except for the normal diet control group (Chow) were fed with high-fat feed every day for […]. From week 9, each group was orally administered solvent or a corresponding test compound, and body weight data were recorded every day for 8 consecutive weeks. After the first 8 weeks' high-fat diet, blood samples were taken and centrifuged to separate serum, and the serum was tested for blood lipid levels (TCHO, TG, LDL-C and HDL-C). The mice were randomly grouped according to the TCHO results and body weight. During the subsequent 8 weeks of administration, blood lipid tests (TCHO, TG, LDL-C and HDL-C) were run once every 4 weeks.
Mouse heart samples were fixed overnight in 4% paraformaldehyde solution and dehydrated in sucrose solution. Then, the samples were embedded with OCT (Sakura, Japan) under a stereo microscope and made into 10 μm frozen sections. The sections were stained with oil red ORO and then subjected to routine pathological examinations. Images of the outflow tract were acquired under an optical microscope at 4× magnification, and high-quality morphological observations were carried out using an eyepiece with 20× magnification. The percentage of intimal lesions in the cardiac outflow tract was calculated. The detection criteria followed the criteria for histological classification of human atherosclerotic disease, which are described in detail below:
The area of plaques in the left ventricular outflow tract was measured using a microscope, and the proportion of plaques in the left ventricular outflow tract was calculated; this value reflects the degree of stenosis in the cardiac outflow tract vessel.

Structure (SMILES): O=C(Cc1ccc2ncccc2c1)N1CCC(n2c(=O)n(COP(=O)([O-])[O-])c3cccc(C(F)(F)F)c32)CC1.[Na+].[Na+] [GEN1-284 salt, (2-Oxo-3-(1-(2-(quinolin-6-yl)acetyl)piperidin-4-yl)-4-(trifluoromethyl)-2,3-dihydro-1H-benzo[d]imidazol-1-yl)methyl disodium phosphate]
- Changes in body weight, Mean ± SEM ([1]; G4 GEN1-284s 30 mg/kg, Day 33): 19.50 ± 0.61
- Clinical scores, Mean ± SEM ([1]; G4 GEN1-284s 30 mg/kg, Day 33): 3.6 ± 1.13
- Changes in body weight, Mean ± SEM ([1]; G4 GEN1-284s 30 mg/kg, Day 35): 19.68 ± 0.61
- Clinical scores, Mean ± SEM ([1]; G4 GEN1-284s 30 mg/kg, Day 35): 5.1 ± 1.25
- Changes in body weight, Mean ± SEM ([1]; G4 GEN1-284s 30 mg/kg, Day 38): 19.46 ± 0.56
- Clinical scores, Mean ± SEM ([1]; G4 GEN1-284s 30 mg/kg, Day 38): 6.0 ± 1.40
- Clinical scores: significance vs. solvent control group, two-way ANOVA ([1]; G4 GEN1-284s 30 mg/kg, Day 38): ** (** p < 0.01)
- Changes in body weight, Mean ± SEM ([1]; G4 GEN1-284s 30 mg/kg, Day 40): 20.06 ± 0.53
- Clinical scores, Mean ± SEM ([1]; G4 GEN1-284s 30 mg/kg, Day 40): 6.9 ± 1.53
- Clinical scores: significance vs. solvent control group, two-way ANOVA ([1]; G4 GEN1-284s 30 mg/kg, Day 40): * (* p <0.05)
- Changes in body weight, Mean ± SEM ([1]; G4 GEN1-284s 30 mg/kg, Day 42): 19.78 ± 0.44
- Clinical scores, Mean ± SEM ([1]; G4 GEN1-284s 30 mg/kg, Day 42): 8.1 ± 1.26
- Clinical scores: significance vs. solvent control group, two-way ANOVA ([1]; G4 GEN1-284s 30 mg/kg, Day 42): * (* p <0.05)
- Changes in body weight, Mean ± SEM ([1]; G5 GEN1-284s 50 mg/kg, Day 21): 20.44 ± 0.30
- Clinical scores, Mean ± SEM ([1]; G5 GEN1-284s 50 mg/kg, Day 21): 0.0 ± 0.00
- Changes in body weight, Mean ± SEM ([1]; G5 GEN1-284s 50 mg/kg, Day 24): 19.66 ± 0.23
- Clinical scores, Mean ± SEM ([1]; G5 GEN1-284s 50 mg/kg, Day 24): 0.0 ± 0.00
- Changes in body weight, Mean ± SEM ([1]; G5 GEN1-284s 50 mg/kg, Day 26): 19.70 ± 0.26
- Clinical scores, Mean ± SEM ([1]; G5 GEN1-284s 50 mg/kg, Day 26): 0.4 ± 0.18
- Changes in body weight, Mean ± SEM ([1]; G5 GEN1-284s 50 mg/kg, Day 28): 19.60 ± 0.43
- Clinical scores, Mean ± SEM ([1]; G5 GEN1-284s 50 mg/kg, Day 28): 0.6 ± 0.18
- Changes in body weight, Mean ± SEM ([1]; G5 GEN1-284s 50 mg/kg, Day 31): 18.88 ± 0.52
- Clinical scores, Mean ± SEM ([1]; G5 GEN1-284s 50 mg/kg, Day 31): 1.9 ± 0.67
- Changes in body weight, Mean ± SEM ([1]; G5 GEN1-284s 50 mg/kg, Day 33): 18.91 ± 0.59
- Clinical scores, Mean ± SEM ([1]; G5 GEN1-284s 50 mg/kg, Day 33): 3.4 ± 1.15
- Changes in body weight, Mean ± SEM ([1]; G5 GEN1-284s 50 mg/kg, Day 35): 19.09 ± 0.53
- Clinical scores, Mean ± SEM ([1]; G5 GEN1-284s 50 mg/kg, Day 35): 4.8 ± 1.36
- Clinical scores: significance vs. solvent control group, two-way ANOVA ([1]; G5 GEN1-284s 50 mg/kg, Day 35): * (* p <0.05)
- Changes in body weight, Mean ± SEM ([1]; G5 GEN1-284s 50 mg/kg, Day 38): 19.10 ± 0.52
- Clinical scores, Mean ± SEM ([1]; G5 GEN1-284s 50 mg/kg, Day 38): 5.9 ± 1.54
- Clinical scores: significance vs. solvent control group, two-way ANOVA ([1]; G5 GEN1-284s 50 mg/kg, Day 38): ** (** p < 0.01)
- Changes in body weight, Mean ± SEM ([1]; G5 GEN1-284s 50 mg/kg, Day 40): 19.31 ± 0.43
- Clinical scores, Mean ± SEM ([1]; G5 GEN1-284s 50 mg/kg, Day 40): 6.6 ± 1.60
- Clinical scores: significance vs. solvent control group, two-way ANOVA ([1]; G5 GEN1-284s 50 mg/kg, Day 40): ** (** p < 0.01)
- Changes in body weight, Mean ± SEM ([1]; G5 GEN1-284s 50 mg/kg, Day 42): 19.39 ± 0.39
- Clinical scores, Mean ± SEM ([1]; G5 GEN1-284s 50 mg/kg, Day 42): 6.9 ± 1.55
- Clinical scores: significance vs. solvent control group, two-way ANOVA ([1]; G5 GEN1-284s 50 mg/kg, Day 42): ** (** p < 0.01)
- Changes in body weight after the single administration (female BALB/c mice; 1000 mg/kg P.O once on day 0, Day 0, individual mice F4-F6): 23.5 and 21.2 and 21.1
- Changes in body weight after the single administration (female BALB/c mice; 1000 mg/kg P.O once on day 0, Day 1, individual mice F4-F6): 23.8 and 21.5 and 22
- Changes in body weight after the single administration (female BALB/c mice; 1000 mg/kg P.O once on day 0, Day 2, individual mice F4-F6): 23.5 and 21.9 and 21.7
- Changes in body weight after the single administration (female BALB/c mice; 1000 mg/kg P.O once on day 0, Day 3, individual mice F4-F6): 24.1 and 21.8 and 20.3
- Changes in body weight after the single administration (female BALB/c mice; 1000 mg/kg P.O once on day 0, Day 4, individual mice F4-F6): 24.3 and 21.8 and 22.7
- Changes in body weight after the single administration (female BALB/c mice; 1000 mg/kg P.O once on day 0, Day 5, individual mice F4-F6): 23.8 and 21.6 and 23.4
- Changes in body weight after the single administration (female BALB/c mice; 1000 mg/kg P.O once on day 0, Day 6, individual mice F4-F6): 23.4 and 21.6 and 22.8
- Effect of single administration on body weight, activity and survival (female BALB/c mice; female BALB/c mice, 1000 mg/kg once by oral gavage, observed 6 days, 1000 mg/kg): did not affect the body weight or activity; also recorded: did not affect the survival and body weight of the animals
- Left ventricular outflow tract plaques [2]: a certain ameliorating effect on outflow tract plaques
